Where a name gives a salt, the structure may show the parent alone.
Columns and labels:
Format in all cases: biochemical
[1] = molecular target: T1, GST-tagged recombinant full-length human Pim-2 (Homo sapiens, UniProt Q9P1W9); experiment: PIM-2 Assay (as Example A); conditions: averaged IC50; 4 μM ATP, 1.0 μM PIM2tide, 1.5 nM Pim-2
T1 construct: GST-tagged recombinant full-length human Pim-2; GST
Procedure, shortened: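 IC50 was derived by 4-parameter logistic fitting of percent-of-control data over a 10-point, 3-fold series (highest 10 μM, 2% DMSO). Reactions held 1.5 nM GST-Pim-2 (full-length, human), 4 μM [γ-33P]ATP and 1.0 μM PIM2tide for 60 min at 22 °C, pH 7.4; 33P-peptide captured on P81 filters.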

PIM-1 = PIM-1 (Homo sapiens, UniProt P11309); experiment: Enzyme PIM-1 Assay ([33P]ATP incorporation into PIM2tide, filter plate); conditions: averaged IC50; 35 μM ATP, 7.5 μM PIM2tide, 0.25 nM PIM-1, 60 min at 22° C.
Procedure, shortened: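 Ten-point, 3-fold dilution series (10 μM top, 2% DMSO final) tested for inhibition of 33P transfer from 35 μM ATP to 7.5 μM PIM2tide by 0.25 nM PIM-1. Reaction 60 min, 22 °C, pH 7.4 MOPS/MgCl2 buffer; phosphocellulose capture, scintillation counting, IC50 where fitted POC equals 50.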

recombinant rat PIM-3 = recombinant rat PIM-3 (Rattus norvegicus, UniProt O70444); experiment: PIM-3 Assay (as Example A); conditions: averaged IC50; 30 μM ATP, 3.75 μM PIM2tide, 0.5 nM PIM-3
Procedure, shortened: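 33P incorporation from 30 μM [γ-33P]ATP into 3.75 μM PIM2tide by 0.5 nM rat PIM-3, 60 min at 22 °C in pH 7.4 MOPS buffer, read by P81 filter capture and scintillation counting. Compounds tested in 3-fold dilutions up to 10 μM final, 2% DMSO; percent-of-control data fitted by 4-parameter logistic for IC50.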

T1 sequence (Q9P1W9 whole entry): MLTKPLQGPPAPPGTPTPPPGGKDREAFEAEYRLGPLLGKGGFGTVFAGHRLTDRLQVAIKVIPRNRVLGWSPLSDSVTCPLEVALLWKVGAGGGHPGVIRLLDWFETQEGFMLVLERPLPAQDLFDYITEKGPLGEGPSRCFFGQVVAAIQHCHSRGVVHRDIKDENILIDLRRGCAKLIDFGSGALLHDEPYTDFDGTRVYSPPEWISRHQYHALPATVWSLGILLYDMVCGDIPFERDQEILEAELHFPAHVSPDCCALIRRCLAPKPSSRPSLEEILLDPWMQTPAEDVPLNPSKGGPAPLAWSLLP
Chain of PIM-1 (P11309 whole entry, species assumed): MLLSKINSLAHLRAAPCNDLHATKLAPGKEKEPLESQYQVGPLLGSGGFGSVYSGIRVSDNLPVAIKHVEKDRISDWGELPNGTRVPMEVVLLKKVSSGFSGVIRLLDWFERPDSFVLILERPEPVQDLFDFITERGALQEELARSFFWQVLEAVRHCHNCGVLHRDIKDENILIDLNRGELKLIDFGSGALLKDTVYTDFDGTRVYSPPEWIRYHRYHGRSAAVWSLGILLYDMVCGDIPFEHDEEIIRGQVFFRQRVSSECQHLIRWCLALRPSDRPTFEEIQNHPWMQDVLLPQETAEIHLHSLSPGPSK

CC(C)(O)COc1ccc2ccc(-c3nnc4ccc([C@@H](N5CC[C@H](N)C5)C(F)(F)F)cn34)nc2c1 [Example 278, 1-(2-(6-((R)-1-((S)-3-aminopyrrolidin-1-yl)-2,2,2-trifluoroethyl)-[1,2,4]triazolo[4,3-a]pyridin-3-yl)quinolin-7-yloxy)-2-methylpropan-2-ol dihydrochloride]
IC50 [1]: 180 nM
IC50 (PIM-1): 0.23 nM
IC50 (recombinant rat PIM-3): 0.4 nM

CCOc1cc2nc(-c3nnc4ccc([C@H](N5CC[C@](C)(N)C5)C(F)(F)F)cn34)ccc2cc1F [Example 220, (S)-1-((S)-1-(3-(7-ethoxy-6-fluoroquinolin-2-yl)-[1,2,4]triazolo[4,3-a]pyridin-6-yl)-2,2,2-trifluoroethyl)-3-methylpyrrolidin-3-amine]
IC50 [1]: 72 nM
IC50 (PIM-1): 0.28 nM
IC50 (recombinant rat PIM-3): 0.4 nM

CC(C)N[C@H]1CCN(C(c2ccc3nnc(-c4ccc5cccc(OCC6CC6)c5n4)n3c2)C(F)(F)F)C1 (stereo partly drawn) [Example 32, (3S)-1-(1-(3-(8-(cyclopropylmethoxy)quinolin-2-yl)-[1,2,4]triazolo[4,3-a]pyridin-6-yl)-2,2,2-trifluoroethyl)-N-isopropylpyrrolidin-3-amine dihydrochloride]
IC50 [1]: 266 nM
IC50 (PIM-1): 0.53 nM
IC50 (recombinant rat PIM-3): 10 nM

CC(C)Oc1cc(F)cc2ccc(-c3nnc4ccc([C@@H](N5C[C@@H](N)[C@H](O)C5)C(F)(F)F)cn34)nc12 [Example 147, (3R,4R)-4-amino-1-((R)-2,2,2-trifluoro-1-(3-(6-fluoro-8-isopropoxyquinolin-2-yl)-[1,2,4]triazolo[4,3-a]pyridin-6-yl)ethyl)pyrrolidin-3-ol dihydrochloride]
IC50 [1]: 36 nM
IC50 (PIM-1): 0.11 nM
IC50 (recombinant rat PIM-3): 0.3 nM

CO[C@@H](C)COc1ccc2ccc(-c3nnc4ccc([C@H](N5CC[C@](C)(N)C5)C(F)(F)F)cn34)nc2c1 [Example 304, (S)-3-methyl-1-((S)-2,2,2-trifluoro-1-(3-(7-((S)-2-methoxypropoxy)quinolin-2-yl)-[1,2,4]triazolo[4,3-a]pyridin-6-yl)ethyl)pyrrolidin-3-amine]
IC50 [1]: 65.1 nM
IC50 (PIM-1): 0.26 nM
IC50 (recombinant rat PIM-3): 0.3 nM

COc1cccc2ccc(-c3nnc4ccc([C@@H](N5CC[C@H](NCCF)C5)C(F)(F)F)cn34)nc12 [Example 80, (S)—N-(2-fluoroethyl)-1-((R)-2,2,2-trifluoro-1-(3-(8-methoxyquinolin-2-yl)-[1,2,4]triazolo[4,3-a]pyridin-6-yl)ethyl)pyrrolidin-3-amine dihydrochloride]
IC50 [1]: > 100 nM
IC50 (PIM-1): 6.41 nM
IC50 (recombinant rat PIM-3): 32 nM

FC(F)(F)C(c1ccc2nnc(-c3ccc4cccc(OCC5CC5)c4n3)n2c1)N1C[C@H]2C[C@@H]1CN2 (stereo partly drawn) [Example 25, 2-(6-(1-((1R,4R)-2,5-diazabicyclo[2.2.1]heptan-2-yl)-2,2,2-trifluoroethyl)-[1,2,4]triazolo[4,3-a]pyridin-3-yl)-8-(cyclopropylmethoxy)quinoline dihydrochloride]
IC50 [1]: 86 nM
IC50 (PIM-1): 0.8 nM
IC50 (recombinant rat PIM-3): 5.1 nM

CC(C)Oc1cccc2ccc(-c3nnc4ccc([C@@H](N5C[C@@H](N)[C@@H](O)C5)C(F)(F)F)cn34)nc12 [Example 129, (3S,4R)-4-amino-1-((R)-2,2,2-trifluoro-1-(3-(8-isopropoxyquinolin-2-yl)-[1,2,4]triazolo[4,3-a]pyridin-6-yl)ethyl)pyrrolidin-3-ol dihydrochloride]
IC50 [1]: 621 nM
IC50 (PIM-1): 1.6 nM
IC50 (recombinant rat PIM-3): 7.7 nM

COCCOc1ccc2cc(F)c(-c3nnc4ccc(C(N5CC[C@](C)(N)C5)C(F)(F)F)cn34)nc2c1 (stereo in doubt) [Example 327, (S)-3-methyl-1-((R)-2,2,2-trifluoro-1-(3-(3-fluoro-7-(2-methoxyethoxy)quinolin-2-yl)-[1,2,4]triazolo[4,3-a]pyridin-6-yl)ethyl)pyrrolidin-3-amine]
IC50 [1]: 340 nM
IC50 (PIM-1): 0.42 nM
IC50 (recombinant rat PIM-3): 1.34 nM

C[C@]1(N)CCN([C@@H](c2ccc3nnc(-c4ccc5ccc(C6CC6)cc5n4)n3c2)C(F)(F)F)C1 [Example 223, (S)-1-((S)-1-(3-(7-cyclopropylquinolin-2-yl)-[1,2,4]triazolo[4,3-a]pyridin-6-yl)-2,2,2-trifluoroethyl)-3-methylpyrrolidin-3-amine dihydrochloride]
IC50 [1]: 62 nM
IC50 (PIM-1): 0.29 nM
IC50 (recombinant rat PIM-3): 0.3 nM

CC(C)Oc1cccc2ccc(-c3nnc4ccc(C(N5C[C@@H](O)[C@H](O)C5)C(F)(F)F)cn34)nc12 (single isomer, unassigned) [Example 82]
IC50 [1]: > 100 nM
IC50 (PIM-1): 1.12 nM
IC50 (recombinant rat PIM-3): 30 nM

N[C@@H]1CCN([C@H](c2ccc3nnc(-c4ccc5cccc(OCC6CC6)c5n4)n3c2)C(F)(F)F)C1 (single isomer, unassigned) [Example 22]
IC50 [1]: 145 nM
IC50 (PIM-1): 0.25 nM
IC50 (recombinant rat PIM-3): 2.9 nM

Cc1nn(C)cc1-c1cc2nc(-c3nnc4ccc([C@@H](N5CC[C@H](N)C5)C(F)(F)F)cn34)ccc2cc1F [Example 205, (3 S)-1-((1R)-1-(3-(7-(1,3-dimethyl-1H-pyrazol-4-yl)-6-fluoroquinolin-2-yl)-[1,2,4]triazolo[4,3-a]pyridin-6-yl)-2,2,2-trifluoroethyl)pyrrolidin-3-amine dihydrochloride]
IC50 [1]: 244 nM
IC50 (PIM-1): 0.14 nM
IC50 (recombinant rat PIM-3): 0.2 nM

COc1cc2nc(-c3nnc4ccc([C@H](N5CC[C@H](N)C5)C(F)(F)F)cn34)ccc2cc1F [Example 136, (S)-1-((S)-2,2,2-trifluoro-1-(3-(6-fluoro-7-methoxyquinolin-2-yl)-[1,2,4]triazolo[4,3-a]pyridin-6-yl)ethyl)pyrrolidin-3-amine hydrochloride]
IC50 [1]: 96 nM
IC50 (PIM-1): 0.87 nM
IC50 (recombinant rat PIM-3): 5 nM

CO[C@H](C)COc1cc2nc(-c3nnc4ccc([C@H](N5CC[C@](C)(N)C5)C(F)(F)F)cn34)ccc2cc1F [Example 324, (S)-3-methyl-1-((S)-2,2,2-trifluoro-1-(3-(6-fluoro-7-((R)-2-methoxypropoxy)quinolin-2-yl)-[1,2,4]triazolo[4,3-a]pyridin-6-yl)ethyl)pyrrolidin-3-amine di-hydrochloride]
IC50 [1]: 44.6 nM
IC50 (PIM-1): 0.18 nM
IC50 (recombinant rat PIM-3): 0.21 nM

CCC1(N)CCN([C@@H](c2ccc3nnc(-c4ccc5cccc(OC)c5n4)n3c2)C(F)(F)F)C1 (single isomer, unassigned; diastereomer 2) [Example 244, dihydrochloride]
IC50 [1]: 93 nM
IC50 (PIM-1): 1.11 nM
IC50 (recombinant rat PIM-3): 1 nM

CO[C@H](C)COc1cc2nc(-c3nnc4ccc([C@@H](N5CC[C@H](N)C5)C(F)(F)F)cn34)ccc2cc1F [Example 325, (S)-1-((R)-2,2,2-trifluoro-1-(3-(6-fluoro-7-((R)-2-methoxypropoxy)quinolin-2-yl)-[1,2,4]triazolo[4,3-a]pyridin-6-yl)ethyl)pyrrolidin-3-amine di-hydrochloride]
IC50 [1]: 102 nM
IC50 (PIM-1): 0.06 nM
IC50 (recombinant rat PIM-3): 0.13 nM

CC(C)NC(=O)c1ccc2ccc(-c3nnc4ccc([C@H](N5CC[C@@H](N)C5)C(F)(F)F)cn34)nc2c1 [Example 52, 2-(6-((S)-1-((R)-3-aminopyrrolidin-1-yl)-2,2,2-trifluoroethyl)-[1,2,4]triazolo[4,3-a]pyridin-3-yl)-N-isopropylquinoline-7-carboxamide]
IC50 [1]: > 100 nM
IC50 (PIM-1): 1.39 nM
IC50 (recombinant rat PIM-3): 2 nM

C[C@@H](c1ccc2nnc(-c3ccc4cccc(C(C)(C)C)c4n3)n2c1)N1CC[C@H](N)C1 [Example 308, (S)-1-((S)-1-(3-(8-tert-butylquinolin-2-yl)-[1,2,4]triazolo[4,3-a]pyridin-6-yl)ethyl)pyrrolidin-3-amine trihydrochloride]
IC50 [1]: 29.4 nM
IC50 (PIM-1): 0.17 nM
IC50 (recombinant rat PIM-3): 0.4 nM

CC(C)(O)COc1cc2nc(-c3nnc4ccc([C@H](N5CC[C@](C)(N)C5)C(F)(F)F)cn34)ccc2cc1F [Example 301, 1-(2-(6-((S)-1-((S)-3-amino-3-methylpyrrolidin-1-yl)-2,2,2-trifluoroethyl)-[1,2,4]triazolo[4,3-a]pyridin-3-yl)-6-fluoroquinolin-7-yloxy)-2-methylpropan-2-ol dihydrochloride]
IC50 [1]: 14 nM
IC50 (PIM-1): 0.2 nM
IC50 (recombinant rat PIM-3): 0.2 nM

COCCOc1ccc2ccc(-c3nnc4ccc([C@@H](N5C[C@@H](N)[C@H](OC)C5)C(F)(F)F)cn34)nc2c1 [Example 318, (3R,4R)-4-methoxy-1-((R)-2,2,2-trifluoro-1-(3-(7-(2-methoxyethoxy)quinolin-2-yl)-[1,2,4]triazolo[4,3-a]pyridin-6-yl)ethyl)pyrrolidin-3-amine]
IC50 [1]: 218 nM
IC50 (PIM-1): 0.94 nM
IC50 (recombinant rat PIM-3): 0.8 nM

CC(C)Oc1ccc2ccc(-c3nnc4ccc([C@H](N5CC[C@](C)(N)C5)C(F)(F)F)cn34)nc2c1 [Example 314, (S)-3-methyl-1-((S)-2,2,2-trifluoro-1-(3-(7-isopropoxyquinolin-2-yl)-[1,2,4]triazolo[4,3-a]pyridin-6-yl)ethyl)pyrrolidin-3-amine]
IC50 [1]: 18.4 nM
IC50 (PIM-1): 0.22 nM
IC50 (recombinant rat PIM-3): 0.4 nM
